# Results: US20040253257A1, “Biological compositions and methods for treatment of liver cancer” (priority 2003, published 2004)
# Like-named read-outs stand apart in the source and are kept apart here.
# Tests used:
# human liver cancer [1] = conditions: for Number of live animals remaining in the groups after 30 days of treatment: 30 mice per group
# Experimental: (§1) The survival time of mice after tumor injection and treatment was studied.
# The biological composition comprising […] of activated and conditioned yeast cells of the strain Saccharomyces cerevisiae Hansen strain AS2.503 was prepared by the methods described in Section 5.1 and subsections therein.
# The animals were prepared in a similar manner as described in Section 6.1.
# (§2) The mice injected with tumor cells were divided into 4 experimental groups of ten mice per group and one control group. The four experimental groups were triplicated (i.e., using a total of 120 mice in the experimental groups). In group 2AY, the mice received 0.3 ml of the biological composition once per day. In group 2NY, the mice received 0.3 ml of the untreated yeast cells once per day. In group 2CTX, the mice were injected intravenously with 30 mg of cyclophosphamide (CTX) per kg body weight once a week for four weeks. In group 2CK1, the mice received 0.3 ml of physiological saline once per day.
# (§3) The mice received the biological compositions, untreated yeast cells, CTX or saline on the same day as the tumor cells were transplanted. The mice in group 2CK2 also started receiving saline on the same day as the other four groups. The biological compositions, untreated yeast cells and saline were administered orally by a feeding tube and the CTX by intravenous injection for 30 consecutive days. The mice were observed over 6 months from the day of their inoculation and survival was recorded. The weight of the mice, the weight of the liver, and the weight of the tumor were determined by standard techniques.
# Liver tumor H-22 [2] = conditions: for Number of live animals remaining in the groups after 30 days of treatment: 30 mice per group
# Experimental: as §1
# (§4) The biological composition comprising 10^8 cells per ml of activated and conditioned yeast cells of the strain Saccharomyces cerevisiae Hansen strain AS2.503 was prepared by the methods described in Section 5.1 and subsections therein.
# The animals were prepared in a similar manner as described in Section 8.1.
# as §2, with “per day.” for “once a week for four weeks.”
# as §3, with “recorded.” for “recorded. The weight of the mice, the weight of the liver, and the weight of the tumor were determined by standard techniques.”
# human liver cancer [3] = assay: Swiss mouse model of human liver cancer, growth of tumors; conditions: 31st day from tumor inoculation; 30 days treatment; yeast 0.3 ml oral once per day, CTX 30 mg/kg iv once a week
# Text: The animals were generally anaesthetized. […] Afterwards, the opening was sutured and the mice were put back into the cage.
# (§5) The mice injected with tumor cells were divided into 4 experimental groups of ten mice per group and one control group. The four experimental groups were triplicated (i.e., using a total of 120 mice in the experimental groups).
# (§6) The mice received the biological compositions, untreated yeast cells, CTX or saline on the same day as the tumor cells were transplanted. The mice in group CK2 also started receiving saline on the same day as the other four groups. The biological compositions, untreated yeast cells and saline were administered orally by a feeding tube and the CTX by intravenous injection for 30 consecutive days.
# Liver tumor H-22 [4] = assay: C3H mouse model of liver cancer (H-22), growth of tumors; conditions: 31st day from tumor inoculation; 30 days treatment; yeast 0.3 ml oral once per day, CTX 30 mg/kg iv per day
# Experimental: as §4, §5, §6
# [5] = 0 month after cessation of treatment
# [6] = 1 month after cessation of treatment
# [7] = 2 months after cessation of treatment
# [8] = 3 months after cessation of treatment
# [9] = 4 months after cessation of treatment
# [10] = 5 months after cessation of treatment
# [11] = 6 months after cessation of treatment
# [12] = from injection of tumor cells, 30 days treatment
# [13] = mice that survived, observed over 6 months
smiles,measurement,setting,value
"O=P1(N(CCCl)CCCl)NCCCO1 (stereo not shown) [CTX, cyclophosphamide]",Number of live animals remaining in the groups after 30 days of treatment,human liver cancer [1]; [5],30
same,Number of live animals remaining in the groups after 30 days of treatment,human liver cancer [1]; [6],30
same,Number of live animals remaining in the groups after 30 days of treatment,human liver cancer [1]; [7],27
same,Number of live animals remaining in the groups after 30 days of treatment,human liver cancer [1]; [8],22
same,Number of live animals remaining in the groups after 30 days of treatment,human liver cancer [1]; [9],19
same,Number of live animals remaining in the groups after 30 days of treatment,human liver cancer [1]; [10],7
same,Number of live animals remaining in the groups after 30 days of treatment,human liver cancer [1]; [11],0
same,survival of mice bearing liver cancer cells,human liver cancer [1]; [12],all died after four months
same,mean weight of liver and standard deviation,human liver cancer [1]; [13],all animals dead
same,mean weight of mice and standard deviation,human liver cancer [1]; [13],all animals dead
same,mean weight of tumor nodules and standard deviation,human liver cancer [1]; [13],all animals dead
same,Number of live animals remaining in the groups after 30 days of treatment,Liver tumor H-22 [2]; [5],30
same,Number of live animals remaining in the groups after 30 days of treatment,Liver tumor H-22 [2]; [6],27
same,Number of live animals remaining in the groups after 30 days of treatment,Liver tumor H-22 [2]; [7],24
same,Number of live animals remaining in the groups after 30 days of treatment,Liver tumor H-22 [2]; [8],19
same,Number of live animals remaining in the groups after 30 days of treatment,Liver tumor H-22 [2]; [9],11
same,Number of live animals remaining in the groups after 30 days of treatment,Liver tumor H-22 [2]; [10],3
same,Number of live animals remaining in the groups after 30 days of treatment,Liver tumor H-22 [2]; [11],0
same,survival of mice bearing liver cancer cells,Liver tumor H-22 [2]; [12],all died after four months
same,mean weight of liver and standard deviation,Liver tumor H-22 [2]; [13],all animals dead
same,mean weight of mice and standard deviation,Liver tumor H-22 [2]; [13],all animals dead
same,mean weight of tumor nodules and standard deviation,Liver tumor H-22 [2]; [13],all animals dead
same,mean weight of liver and standard deviation,human liver cancer [3],"1,372 ± 8 mg"
same,mean weight of mice and standard deviation,human liver cancer [3],17 ± 0.9 g
same,mean weight of tumor nodules and standard deviation,human liver cancer [3],249 ± 9 mg
same,mean weight of liver and standard deviation,Liver tumor H-22 [4],"1,351 ± 9 mg"
same,mean weight of mice and standard deviation,Liver tumor H-22 [4],18.8 ± 0.7 g
same,mean weight of tumor nodules and standard deviation,Liver tumor H-22 [4],253 ± 8 mg
